Patent US10952433B2, “Solutions for enhancing the effectiveness of insecticides and fungicides on living plants and related methods” (priority 2015, dated 2021)
Where two headings read alike, the source gives them in different places.

Key:
[1] = system: lepidopteran larvae: cabbage loopers (Trichoplusia ni) and beet armyworms (Spodoptera exigua); format: in vivo; conditions: plants
Description: In a first group of tests, the results of which are shown in Table 7 (pages 22-24), romaine lettuce plants two to three inches in height were exposed to 10 milliliters of solution applied to each plant using a low volume trigger spray. With respect to containers 0-7, ten plants were employed per container, nine were treated and one was an internal control. In containers M-H, ten plants per container were used, five were treated and 5 were internal controls. Each container was infested with 30 lepidopteran larvae between the 5th and 6th instar development. Fifteen cabbage loopers (Trichoplusia ni) and 15 beet armyworms (Spodoptera exigua) were used to infest the romaine lettuce plants. Visual evaluations for the average percentage total surface area damage were taken 24 hours after infestation. Percentage damage was evaluated by 5% increments for total damage across all plant leaves.
As indicated in the first column of Table 7, in some tests, no insecticide was employed and there were two controls; a no water control and a no dye control. A wide variety of insecticides selected from the following group were tested: Chlorantranilopril, Acephate, Methoxyfenozide, Spinosad, Permethrin, and Indoxacarb. The product concentration is shown in PPM in column 2. Column 3 is divided into two subunits, the first being CO3 and the second, PO4. In all instances in columns 3, 4 and 5 and their sub-columns, the concentrations used were 200:1. The fourth column employed amine oxide, but no buffer. […] Two sub-columns each are represented for CO3 and PO4. The final column is a reading of the Percent Lepidopteran Damage to the romaine lettuce plants after 24 hours.
In addition to testing the buffered amine system of the present invention with the two amine oxides identified as CO3 and PO4 and their use with 12 carbon length and a mixture of 12 and 18 designated 1218 for comparative data purposes various differences were created in the testing. Some of the tests were performed with (a) no insecticide along with (b) no amine oxide for CO3 and PO4 and (c) with no buffer, but with amine oxide. Also, tests were run using no insecticide and no water control with no foliar application being made. Tests with no insecticide and no dye control employed foliar application of water only. The tests were conducted with all of the testing on the buffer alone, the amine oxide alone and the buffered amine oxide system of the present invention in the concentration of 200:1.

[2] = system: lepidopteran larvae: cabbage loopers (Trichoplusia ni) and beet armyworms (Spodoptera exigua); format: in vivo; conditions: leaf discs
Text: A second series of tests involved romaine lettuce discs approximately ⅝ inch in diameter. (L. sativa). They were dipped in the treatment solution one second per disc. This test involved the 5/5 configuration, i.e., 5 treated and 5 untreated. The infestation involved […] lepidopteran larvae at the 3rd to 4th instar development per container: four cabbage loopers (Trichoplusia ni), and four beet armyworms (Spodoptera exigua) were employed. The test containers were placed in a dark humidity cabinet at 15° C. and 80% relative humidity. Visual evaluations of the average percent damage were taken at 24, 48 and 72 hours after the initiation of infestation. Damage was evaluated in 5% increments based on total disc area.
In the tests reported in Table 8 pages 29-32), romaine lettuce leaf discs ⅝″ in diameter (L. sativa) were dipped in the treatment solution for about one second per disc. Infestation was provided by eight lepidopteran larvae at the 3rd to 4th instar development per container. Four cabbage loopers (Trichoplusia ni) and four beet armyworms (Spodoptera exigua) were employed in infestation. The containers were placed in a dark humidity cabinet at 15° C. and 80% relative humidity. Visual observations of the average percent damage was taken at 24, 48 and 72 hours after infestation. Damage evaluation was by 5% increments over the total disc area.
In the tests results provided in Table 8, the identity and concentrations of the insecticide was identical to the tests results reported in Table 7. The concentration of 200:1 was employed for the no amino oxide, no buffer and buffered amine oxide system. This series of tests, however, reported how the percent damage changed with time at the respective 24, 48 and 72 hour intervals.

[3] = insecticide + CO3 buffer 200:1, no amine oxide, PPM: Chlorantranilopril 60, Acephate 70, Methoxyfenozide 100, Spinosad 30, Permethrin 10, Indoxacarb 50
[4] = insecticide + PO4 buffer 200:1, no amine oxide, PPM: Chlorantranilopril 60, Acephate 70, Methoxyfenozide 100, Spinosad 30, Permethrin 10, Indoxacarb 50
[5] = insecticide + amine oxide 12, no buffer, 200:1, PPM: Chlorantranilopril 60, Acephate 70, Methoxyfenozide 100, Spinosad 30, Permethrin 10, Indoxacarb 50
[6] = insecticide + amine oxide 1218, no buffer, 200:1, PPM: Chlorantranilopril 60, Acephate 70, Methoxyfenozide 100, Spinosad 30, Permethrin 10, Indoxacarb 50
[7] = insecticide + buffered amine oxide system CO3, 12, 200:1, PPM: Chlorantranilopril 60, Acephate 70, Methoxyfenozide 100, Spinosad 30, Permethrin 10, Indoxacarb 50
[8] = insecticide + buffered amine oxide system CO3, 1218, 200:1, PPM: Chlorantranilopril 60, Acephate 70, Methoxyfenozide 100, Spinosad 30, Permethrin 10, Indoxacarb 50
[9] = insecticide + buffered amine oxide system PO4, 12, 200:1, PPM: Chlorantranilopril 60, Acephate 70, Methoxyfenozide 100, Spinosad 30, Permethrin 10, Indoxacarb 50
[10] = insecticide + buffered amine oxide system PO4, 1218, 200:1, PPM: Chlorantranilopril 60, Acephate 70, Methoxyfenozide 100, Spinosad 30, Permethrin 10, Indoxacarb 50
[11] = insecticide alone, highest, PPM: Chlorantranilopril 120, Acephate 140, Methoxyfenozide 200, Spinosad 60, Permethrin 20, Indoxacarb 100
[12] = insecticide alone, increased, PPM: Chlorantranilopril 90, Acephate 105, Methoxyfenozide 150, Spinosad 45, Permethrin 15, Indoxacarb 75
[13] = insecticide alone, PPM: Chlorantranilopril 60, Acephate 70, Methoxyfenozide 100, Spinosad 30, Permethrin 10, Indoxacarb 50

For `CNC(=O)c1cc(Cl)cc(C)c1NC(=O)c1cc(Br)nn1-c1ncccc1Cl` [Chlorantranilopril], the “Percent Lepidopteran Damage to Romaine Lettuce 24 hr” value [1, 3] was 13.5%, the “Percent Lepidopteran Damage to Romaine Lettuce 24 hr” value [1, 4] was 9.0% and the “Percent Lepidopteran Damage to Romaine Lettuce 24 hr” value [1, 5] was 9.0%. The “Percent Lepidopteran Damage to Romaine Lettuce 24 hr” value [1, 6] was 5.5%, the “Percent Lepidopteran Damage to Romaine Lettuce 24 hr” value [1, 7] was 2.5% and the “Percent Lepidopteran Damage to Romaine Lettuce 24 hr” value [1, 8] was 2.5%. For the same molecule, the “Percent Lepidopteran Damage to Romaine Lettuce 24 hr” value [1, 9] was 4.0%, the “Percent Lepidopteran Damage to Romaine Lettuce 24 hr” value [1, 10] was 0.0% and the “Percent Lepidopteran Damage to Romaine Lettuce 24 hr” value [1, 11] was 8.5%. The “Percent Lepidopteran Damage to Romaine Lettuce 24 hr” value [1, 12] was 8.2%, the “Percent Lepidopteran Damage to Romaine Lettuce 24 hr” value [1, 13] was 10.5% and the “Percent Lepidopteran Damage to Romaine Lettuce 24 hr” value [2, 3] was 13.0%. For the same molecule, the “Percent Lepidopteran Damage to Romaine Lettuce 24 hr” value [2, 4] was 14.0%, the “Percent Lepidopteran Damage to Romaine Lettuce 24 hr” value [2, 5] was 4.5% and the “Percent Lepidopteran Damage to Romaine Lettuce 24 hr” value [2, 6] was 10.5%. For the same molecule, the “Percent Lepidopteran Damage to Romaine Lettuce 24 hr” value [2, 7] was 3.0%, the “Percent Lepidopteran Damage to Romaine Lettuce 24 hr” value [2, 8] was 1.0% and the “Percent Lepidopteran Damage to Romaine Lettuce 24 hr” value [2, 9] was 4.5%. The “Percent Lepidopteran Damage to Romaine Lettuce 24 hr” value [2, 10] was 6.5%, the “Percent Lepidopteran Damage to Romaine Lettuce 24 hr” value [2, 11] was 9.5% and the “Percent Lepidopteran Damage to Romaine Lettuce 24 hr” value [2, 12] was 7.5%. The “Percent Lepidopteran Damage to Romaine Lettuce 24 hr” value [2, 13] was 4.5%, the “Percent Lepidopteran Damage to Romaine Lettuce 48 hr” value [2, 3] was 17.5% and the “Percent Lepidopteran Damage to Romaine Lettuce 48 hr” value [2, 4] was 22.5%. For the same molecule, the “Percent Lepidopteran Damage to Romaine Lettuce 48 hr” value [2, 5] was 8.0%, the “Percent Lepidopteran Damage to Romaine Lettuce 48 hr” value [2, 6] was 17.5% and the “Percent Lepidopteran Damage to Romaine Lettuce 48 hr” value [2, 7] was 5.0%. The “Percent Lepidopteran Damage to Romaine Lettuce 48 hr” value [2, 8] was 2.0%, the “Percent Lepidopteran Damage to Romaine Lettuce 48 hr” value [2, 9] was 12.5% and the “Percent Lepidopteran Damage to Romaine Lettuce 48 hr” value [2, 10] was 12.5%. The “Percent Lepidopteran Damage to Romaine Lettuce 48 hr” value [2, 11] was 17.5%, the “Percent Lepidopteran Damage to Romaine Lettuce 48 hr” value [2, 12] was 14.0% and the “Percent Lepidopteran Damage to Romaine Lettuce 48 hr” value [2, 13] was 9.0%. The “Percent Lepidopteran Damage to Romaine Lettuce 72 hr” value [2, 3] was 19.5%, the “Percent Lepidopteran Damage to Romaine Lettuce 72 hr” value [2, 4] was 24.5% and the “Percent Lepidopteran Damage to Romaine Lettuce 72 hr” value [2, 5] was 8.5%. The “Percent Lepidopteran Damage to Romaine Lettuce 72 hr” value [2, 6] was 18.5%, the “Percent Lepidopteran Damage to Romaine Lettuce 72 hr” value [2, 7] was 5.0% and the “Percent Lepidopteran Damage to Romaine Lettuce 72 hr” value [2, 8] was 2.0%. For the same molecule, the “Percent Lepidopteran Damage to Romaine Lettuce 72 hr” value [2, 9] was 13.0%, the “Percent Lepidopteran Damage to Romaine Lettuce 72 hr” value [2, 10] was 12.5% and the “Percent Lepidopteran Damage to Romaine Lettuce 72 hr” value [2, 11] was 17.5%. For the same molecule, the “Percent Lepidopteran Damage to Romaine Lettuce 72 hr” value [2, 12] was 15.0% and the “Percent Lepidopteran Damage to Romaine Lettuce 72 hr” value [2, 13] was 9.0%.
